Source: ChEMBL document CHEMBL1287771, “Novel hybrids of 15-membered 8a- and 9a-azahomoerythromycin A ketolides and quinolones as potent antibacterials” (2010)
Converted amounts (≈) assume the structure as drawn.

What was measured:
Type in all cases: functional
[1] = test system: Streptococcus pyogenes; assay: Antibacterial activity against constitutive macrolide-lincosamide-streptogramin B-resistant Streptococcus pyogenes B0544 by agar microdilution method
[2] = test system: Streptococcus pyogenes; assay: Antibacterial activity against erythromycin A-susceptible Streptococcus pyogenes B0542 by agar microdilution method
[3] = test system: Staphylococcus aureus; assay: Antibacterial activity against efflux-resistant Staphylococcus aureus B0331 by agar microdilution method
[4] = test system: Staphylococcus aureus; assay: Antibacterial activity against constitutive macrolide-lincosamide-streptogramin B-resistant Staphylococcus aureus B0330 by agar microdilution method
[5] = test system: Haemophilus influenzae; assay: Antibacterial activity against Haemophilus influenzae B0529 by agar microdilution method
[6] = test system: Staphylococcus aureus; assay: Antibacterial activity against inducible macrolide-lincosamide-streptogramin B-resistant Staphylococcus aureus B0538 by agar microdilution method
[7] = test system: Moraxella catarrhalis; assay: Antibacterial activity against Moraxella catarrhalis B0324 by agar microdilution method
[8] = test system: Streptococcus pneumoniae; assay: Antibacterial activity against efflux-resistant Streptococcus pneumoniae B0326 by agar microdilution method
[9] = test system: Streptococcus pneumoniae; assay: Antibacterial activity against constitutive macrolide-lincosamide-streptogramin B-resistant Streptococcus pneumoniae B0627 by agar microdilution method
[10] = test system: Streptococcus pyogenes; assay: Antibacterial activity against inducible macrolide-lincosamide-streptogramin B-resistant Streptococcus pyogenes B0543 by agar microdilution method
[11] = test system: Streptococcus pneumoniae; assay: Antibacterial activity against erythromycin A-susceptible Streptococcus pneumoniae B0541 by agar microdilution method
[12] = test system: Staphylococcus aureus; assay: Antibacterial activity against erythromycin A-susceptible Staphylococcus aureus B0329 by agar microdilution method
[13] = test system: Streptococcus pyogenes; assay: Antibacterial activity against efflux-resistant Streptococcus pyogenes B0545 by agar microdilution method

Structure (SMILES)	MIC [1] [mg/L]	MIC [2] [mg/L]	MIC [3] [mg/L]	MIC [4] [mg/L]	MIC [5] [mg/L]	MIC [6] [mg/L]	MIC [7] [mg/L]	MIC [8] [mg/L]	MIC [9] [mg/L]	MIC [10] [mg/L]	MIC [11] [mg/L]	MIC [12] [mg/L]	MIC [13] [mg/L]
CC[C@H]1OC(=O)[C@H](C)C(=O)[C@H](C)[C@@H](O[C@@H]2O[C@H](C)C[C@H](N(C)C)[C@H]2O)[C@](C)(OCCCC2CNc3ccccc3C2)C[C@@H](C)NC(=O)[C@H](C)[C@H](O)[C@@]1(C)O (some centres not stated)	> 64	≤ 0.125	64 (≈ 84 µM)	64 (≈ 84 µM)	16 (≈ 21 µM)	> 64	1 (≈ 1.31 µM)	8 (≈ 10.5 µM)	64 (≈ 84 µM)	16 (≈ 21 µM)	≤ 0.125	2 (≈ 2.62 µM)	8 (≈ 10.5 µM)
CC[C@H]1OC(=O)[C@H](C)C(=O)[C@H](C)[C@@H](O[C@@H]2O[C@H](C)C[C@H](N(C)C)[C@H]2O)[C@](C)(OCC(O)CNCC(C)C)C[C@@H](C)NC(=O)[C@H](C)[C@H](O)[C@@]1(C)O (some centres not stated)	> 64	8 (≈ 11.1 µM)	64 (≈ 89.1 µM)	> 64	> 64	64 (≈ 89.1 µM)	16 (≈ 22.3 µM)	64 (≈ 89.1 µM)	> 64	64 (≈ 89.1 µM)	16 (≈ 22.3 µM)	64 (≈ 89.1 µM)	8 (≈ 11.1 µM)
CC[C@H]1OC(=O)[C@H](C)C(=O)[C@H](C)[C@@H](O[C@@H]2O[C@H](C)C[C@H](N(C)C)[C@H]2O)[C@](C)(OCC(O)CNCCNc2ccc3c(c2F)c(=O)c(C(=O)O)cn3C2CC2)C[C@@H](C)NC(=O)[C@H](C)[C@H](O)[C@@]1(C)O (some centres not stated)	8 (≈ 8.42 µM)	≤ 0.125	4 (≈ 4.21 µM)	> 64	2 (≈ 2.11 µM)	1 (≈ 1.05 µM)	2 (≈ 2.11 µM)	2 (≈ 2.11 µM)	2 (≈ 2.11 µM)	1 (≈ 1.05 µM)	≤ 0.125	1 (≈ 1.05 µM)	16 (≈ 16.8 µM)
C=CCO[C@]1(C)C[C@@H](C)C(=O)N[C@H](C)[C@H](O)[C@@](C)(O)[C@@H](CC)OC(=O)[C@H](C)[C@@H](O[C@@H]2C[C@@](C)(OC)[C@@H](O)[C@H](C)O2)[C@H](C)[C@H]1O[C@@H]1O[C@H](C)C[C@H](N(C)C)[C@H]1O	> 64	≤ 0.125	> 64	> 64	64 (≈ 81.1 µM)	> 64	4 (≈ 5.07 µM)	> 64	> 64	4 (≈ 5.07 µM)	> 64	> 64	> 64
CC[C@H]1OC(=O)[C@H](C)C(=O)[C@H](C)[C@@H](O[C@@H]2O[C@H](C)C[C@H](N(C)C)[C@H]2O)[C@](C)(OCC(O)CNCCNc2cc3c(=O)c(C(=O)O)cn(C4CC4)c3cc2Cl)C[C@@H](C)NC(=O)[C@H](C)[C@H](O)[C@@]1(C)O (some centres not stated)	32 (≈ 33.1 µM)	≤ 0.125	0.5 (≈ 0.517 µM)	> 64	8 (≈ 8.28 µM)	2 (≈ 2.07 µM)	4 (≈ 4.14 µM)	1 (≈ 1.03 µM)	4 (≈ 4.14 µM)	4 (≈ 4.14 µM)	≤ 0.125	1 (≈ 1.03 µM)	4 (≈ 4.14 µM)
CC[C@H]1OC(=O)[C@H](C)C(=O)[C@H](C)[C@@H](O[C@@H]2O[C@H](C)C[C@H](N(C)C)[C@H]2O)[C@](C)(OC/C=C/c2ccnc3ccccc23)C[C@@H](C)NC(=O)[C@H](C)[C@H](O)[C@@]1(C)O	16 (≈ 21.2 µM)	0.25 (≈ 0.331 µM)	2 (≈ 2.65 µM)	> 64	4 (≈ 5.29 µM)	1 (≈ 1.32 µM)	0.5 (≈ 0.661 µM)	1 (≈ 1.32 µM)	> 64	2 (≈ 2.65 µM)	≤ 0.125	0.5 (≈ 0.661 µM)	2 (≈ 2.65 µM)
CC[C@H]1OC(=O)[C@H](C)C(=O)[C@H](C)[C@@H](O[C@@H]2O[C@H](C)C[C@H](N(C)C)[C@H]2O)[C@](C)(OC/C=C/c2cnc3ccccc3c2)C[C@@H](C)C(=O)N[C@H](C)[C@H](O)[C@@]1(C)OC/C=C/c1cnc2ccccc2c1	8 (≈ 8.67 µM)	≤ 0.125	0.5 (≈ 0.542 µM)	> 64	4 (≈ 4.33 µM)	0.25 (≈ 0.271 µM)	0.125 (≈ 0.135 µM)	0.5 (≈ 0.542 µM)	4 (≈ 4.33 µM)	0.5 (≈ 0.542 µM)	≤ 0.125	≤ 0.125	0.5 (≈ 0.542 µM)
CC[C@H]1OC(=O)[C@H](C)[C@@H](O[C@@H]2C[C@@](C)(OC)[C@@H](O)[C@H](C)O2)[C@H](C)[C@@H](O[C@@H]2O[C@H](C)C[C@H](N(C)C)[C@H]2O)[C@](C)(OC/C=C/NCCc2ccc([N+](=O)[O-])cc2)C[C@@H](C)NC(=O)[C@H](C)[C@H](O)[C@@]1(C)O	> 64	≤ 0.06	32 (≈ 33.6 µM)	> 64	4 (≈ 4.2 µM)	64 (≈ 67.1 µM)	0.25 (≈ 0.262 µM)	4 (≈ 4.2 µM)	32 (≈ 33.6 µM)	2 (≈ 2.1 µM)	0.06 (≈ 0.0629 µM)	0.5 (≈ 0.525 µM)	16 (≈ 16.8 µM)
CC[C@H]1OC(=O)[C@H](C)C(=O)[C@H](C)[C@@H](O[C@@H]2O[C@H](C)C[C@H](N(C)C)[C@H]2O)[C@](C)(OCC(O)CN(C)CCc2ccc([N+](=O)[O-])cc2)C[C@@H](C)NC(=O)[C@H](C)[C@H](O)[C@@]1(C)O (some centres not stated)	1 (≈ 1.21 µM)	≤ 0.125	1 (≈ 1.21 µM)	> 64	1 (≈ 1.21 µM)	0.5 (≈ 0.606 µM)	≤ 0.125	0.5 (≈ 0.606 µM)	≤ 0.125	0.25 (≈ 0.303 µM)	≤ 0.125	≤ 0.125	0.25 (≈ 0.303 µM)
CC[C@H]1OC(=O)[C@H](C)C(=O)[C@H](C)[C@@H](O[C@@H]2O[C@H](C)C[C@H](N(C)C)[C@H]2O)[C@](C)(OC[C@@H](O)CN2CCN(c3ccc4c(c3F)c(=O)c(C(=O)O)cn4C3CC3)CC2)C[C@@H](C)NC(=O)[C@H](C)[C@H](O)[C@@]1(C)O	2 (≈ 2.05 µM)	≤ 0.125	0.25 (≈ 0.256 µM)	2 (≈ 2.05 µM)	≤ 0.125	0.25 (≈ 0.256 µM)	≤ 0.125	≤ 0.125	≤ 0.125	≤ 0.125	≤ 0.125	≤ 0.125	0.5 (≈ 0.512 µM)
CC[C@H]1OC(=O)[C@H](C)[C@@H](O[C@@H]2C[C@@](C)(OC)[C@@H](O)[C@H](C)O2)[C@H](C)[C@@H](O[C@@H]2O[C@H](C)C[C@H](N(C)C)[C@H]2O)[C@](C)(OC/C=C/N[C@H](C)Cc2ccc([N+](=O)[O-])cc2)C[C@@H](C)NC(=O)[C@H](C)[C@H](O)[C@@]1(C)O	> 64	≤ 0.125	64 (≈ 66.2 µM)	> 64	16 (≈ 16.5 µM)	> 64	2 (≈ 2.07 µM)	64 (≈ 66.2 µM)	> 64	8 (≈ 8.27 µM)	≤ 0.125	0.5 (≈ 0.517 µM)	32 (≈ 33.1 µM)
O=C(O)c1cn(C2CC2)c2cc(N3CCNCC3)c(F)cc2c1=O [CIPROFLOXACIN]	0.5 (≈ 1.51 µM)	2 (≈ 6.04 µM)	≤ 0.125	≤ 0.125	≤ 0.125		0.125 (≈ 0.377 µM)	0.25 (≈ 0.754 µM)	0.25 (≈ 0.754 µM)	0.25 (≈ 0.754 µM)	≤ 0.125		≤ 0.125
CC[C@H]1OC(=O)[C@H](C)C(=O)[C@H](C)[C@@H](O[C@@H]2O[C@H](C)C[C@H](N(C)C)[C@H]2O)[C@](C)(OCC(O)CN[C@H](C)Cc2ccccc2)C[C@@H](C)NC(=O)[C@H](C)[C@H](O)[C@@]1(C)O (some centres not stated)	4 (≈ 5.13 µM)	≤ 0.125	2 (≈ 2.56 µM)	> 64	1 (≈ 1.28 µM)	2 (≈ 2.56 µM)	0.25 (≈ 0.321 µM)	1 (≈ 1.28 µM)	2 (≈ 2.56 µM)	0.5 (≈ 0.641 µM)	≤ 0.125	0.5 (≈ 0.641 µM)	0.5 (≈ 0.641 µM)
